Reference: patent US7625948B2, “Ester compound and medicinal use thereof” (Japan Tobacco Inc., priority 2002, dated 2009)
Where two headings read alike, the source gives them in different places.

Tested on: HepG2 cells
Assay: Test Example 2: inhibition of apolipoprotein B secretion from HepG2 cells, ELISA (also used for metabolites in Test Example 8)
Type: cell-based
Conditions: Homo sapiens
Procedure: Inhibition of Apolipoprotein B Secretion from HepG2 Cells
HepG2 cells were suspended in Dulbecco's Modified Eagle's Medium (DMEM) (containing 10% fetal bovine serum, 100 units/mL penicillin and 100 μg/mL streptomycin), and placed on a 96-well plate (4×10^4 cells/well), then incubated for 24 hours. After removal of the medium, DMEM was replaced by a medium containing a sample dissolved in DMSO or a medium containing DMSO (concentration of DMSO: 0.5%) and incubation was further performed for 24 hours, after which the supernatant was recovered, and concentration of apo B in the supernatant was assayed by Enzyme-Linked Immunosorbent Assay (ELISA)
ELISA was carried out as follows. Anti-human apo B monoclonal antibody (0.5 μg/well) diluted with a solution of sodium carbonate in sodium bicarbonate buffer (50 mL, pH 9.6) was placed in a 96-well plate for ELISA, and allowed to stand at room temperature for 15 hours. After washing the plate, a blocking solution (250 μL/well) was placed in the well, and allowed to stand at room temperature for 1.5 hours. After washing the plate, a standard and a sample (100 μL/well) were placed in the well and allowed to stand at room temperature for one hour. The standard was prepared by adjusting the concentration of the purified human apo B with the DMEM to 0 to 1000 ng/mL. After washing the plate, an anti-human apo B polyclonal antibody labeled with a horse radish peroxidase which was diluted in 1:1000 with DEME (100 μL/well), and allowed to stand at room temperature for one hour. After washing the plate, 2,2-azinobis(3-ethylbenzothiazoline-6-sulfonic acid) solution (100 μL/well) was placed in the well, and allowed to stand at room temperature for one hour. The reaction was stopped by addition of 2% oxalic acid (100 μL/well), and absorbency at 405 nm was measured. Concentration of apo B in the sample was calculated on the basis of a standard curve of the standard. Inhibition rate (%) was calculated from the assayed values in accordance with the following equation.
Inhibition rate (%)=100×(1 minus (concentration of apo B in sample group/concentration of apo B in DMSO group).
Based on the above equation, 50% inhibition concentration (IC50) was determined.
Inhibitory Activity on MTP and apo B Secretion Inhibition by Metabolites
In a similar manner to Test Examples 1 and 2, the activity of metabolites was assayed.

[1] = 24 hours, apo B in supernatant by ELISA, read-out: Test Example 2 Inhibition of apo B secretion IC50

IC50 [1] | IC50 (main metabolites of the compounds (Test Example 8), read-out: Inhibition of apo B secretion IC50) | SMILES
2.93 nM |  | CCOC(=O)C(COC(=O)Cc1ccc(NC(=O)c2ccccc2-c2ccc(C(F)(F)F)cc2)c(C(=O)N(C)C)c1)(C(=O)OCC)c1ccc(Cl)cc1 [Example 2-73]
0.79 nM |  | CCOC(=O)C(COC(=O)Cc1ccc(NC(=O)c2cccc(F)c2-c2ccc(C(F)(F)F)cc2)c(C(=O)N(C)C)c1)(C(=O)OCC)c1ccccc1 [Example 2-80]
3 nM |  | CCOC(=O)C(CCOC(=O)Cc1cccc(NC(=O)c2ccccc2-c2ccc(C(F)(F)F)cc2)c1OC(C)C)(C(=O)OCC)c1ccccc1 [Example 5-16]
0.23 nM |  | CCOC(=O)C(COC(=O)Cc1ccc(NC(=O)c2ccccc2-c2ccc(C(F)(F)F)cc2)c(CC(C)C)c1)(C(=O)OCC)c1ccccc1 [Example 1-83]
0.65 nM |  | CCOC(=O)C(COC(=O)Cc1ccc(NC(=O)c2ccccc2-c2ccc(C(F)(F)F)cc2)c(C(=O)N(C)C)c1)(C(=O)OCC)c1nccs1 [Example 2-110]
0.49 nM |  | CCNC(=O)C(CCOC(=O)Cc1ccc(NC(=O)c2ccccc2-c2ccc(C(F)(F)F)cc2)c(CC)c1)(C(=O)NCC)c1ccccc1 [Example 1-81]
20 nM |  | CCOC(=O)C(COC(=O)Cc1ccc(NC(=O)c2ccccc2-c2ccc(C(F)(F)F)cc2)c(NC(C)=O)c1)(C(=O)OCC)c1ccccc1 [Example 9-21]
38 nM |  | C=CCC(COC(=O)Cc1ccc(NC(=O)c2ccccc2-c2ccc(C(F)(F)F)cc2)c(C(=O)N(C)C)c1)(C(=O)OCC)C(=O)OCC [Example 2-117]
91 nM |  | CC(C)N[C@@H](COC(=O)Cc1ccc(NC(=O)c2ccccc2-c2ccc(C(F)(F)F)cc2)c(C(=O)N(C)C)c1)c1ccccc1 [Example 2-29]
38 nM |  | CC(=O)N[C@H](COC(=O)Cc1ccc(NC(=O)c2ccccc2-c2ccc(C(F)(F)F)cc2)c(C(=O)N(C)C)c1)c1ccccc1 [Example 2-35]
4.41 nM |  | CCOC(=O)C(COC(=O)Cc1ccc(NC(=O)c2ccc(OCC)cc2-c2ccc(C(F)(F)F)cc2)c(C(=O)N(C)C)c1)(C(=O)OCC)c1ccccc1 [Example 2-82]
0.95 nM |  | CCOC(=O)C(COC(=O)Cc1ccc(NC(=O)c2ccccc2-c2ccc(C(F)(F)F)cc2)c(C(=O)N(C)C)c1)(C(=O)OCC)c1cccc(Cl)c1 [Example 2-72]
1.6 nM |  | CCOC(=O)C(COC(=O)Cc1ccc(NC(=O)c2ccccc2-c2ccc(C(F)(F)F)cc2)c(OC(C)C)c1)(C(=O)OCC)c1ccccc1 [Example 3-9]
360 nM |  | CCNC(=O)C(COC(=O)Cc1ccc(NC(=O)c2cccnc2-c2ccc(C(F)(F)F)cc2)c(C)c1)(C(=O)NCC)c1ccccc1 [Example 1-77]
49 nM |  | CN(C)C(=O)c1cc(CC(=O)OC[C@@H](NS(C)(=O)=O)c2ccccc2)ccc1NC(=O)c1ccccc1-c1ccc(C(F)(F)F)cc1 [Example 2-49]
4.2 nM |  | CCOC(=O)C(COC(=O)Cc1ccc(NC(=O)c2cccc(C)c2-c2ccc(C(F)(F)F)cc2)c(C(=O)N(C)C)c1)(C(=O)OCC)c1ccccc1 [Example 2-55]
3.1 nM |  | CCCC(COC(=O)Cc1ccc(NC(=O)c2ccccc2-c2ccc(C(F)(F)F)cc2)c(C(=O)N(C)C)c1)(C(=O)OCC)C(=O)OCC [Example 2-114]
 | > 10000 nM | O=C(O)Cc1ccc(NC(=O)c2ccccc2-c2ccc(C(F)(F)F)cc2)c(C(=O)N2CCCC2)c1
1.7 nM |  | CCOC(=O)C(CCOC(=O)Cc1ccc(NC(=O)c2ccccc2-c2ccc(C(F)(F)F)cc2)c(C(=O)N(C)C)c1)(C(=O)OCC)c1ccccc1 [Example 2-32]
0.85 nM |  | CCOC(=O)C(COC(=O)Cc1ccc(NC(=O)c2ccccc2-c2ccc(C(F)(F)F)cc2)c(C(=O)N(C)C)c1)(C(=O)OCC)c1cccc(OC)c1 [Example 2-76]
1.2 nM |  | CCOC(=O)C(COC(=O)Cc1ccc(NC(=O)c2ccccc2-c2ccc(C(F)(F)F)cc2)c(C(=O)N(C)C)c1)(C(=O)OCC)C1CCCCC1 [Example 2-41]
57 nM |  | CCOC(=O)C(COC(=O)Cc1cc(C(=O)N(C)C)c(NC(=O)c2ccccc2-c2ccc(C(F)(F)F)cc2)c(Cl)c1F)(C(=O)OCC)c1ccccc1 [Example 2-66]
0.56 nM |  | CCOC(=O)C(COC(=O)Cc1ccc(NC(=O)c2ccccc2-c2ccc(C(F)(F)F)cc2F)c(C(=O)N(C)C)c1)(C(=O)OCC)c1ccccc1 [Example 2-57]

IC50 [1] | IC50 (main metabolites of the compounds (Test Example 8), read-out: Inhibition of apo B secretion IC50) | SMILES
26 nM |  | CCCN(C)C(=O)c1cc(CC(=O)OCC(C(=O)NCC)(C(=O)NCC)c2ccccc2)ccc1NC(=O)c1ccccc1-c1ccc(C(F)(F)F)cc1 [Example 2-19]
5.2 nM |  | CCOC(=O)C(CCOC(=O)Cc1cccc(NC(=O)c2ccccc2-c2ccc(C(F)(F)F)cc2)c1C(=O)OC)(C(=O)OCC)c1ccccc1 [Example 5-17]
1.4 nM |  | CCOC(=O)C(COC(=O)Cc1ccc(NC(=O)c2ccccc2-c2ccc(C(F)(F)F)cc2)c(C(=O)N(CC)CC)c1)(C(=O)OCC)c1ccccc1 [Example 2-10]
3.2 nM |  | CCOC(=O)C(COC(=O)Cc1ccc(NC(=O)c2ccccc2-c2ccc(C(F)(F)F)cc2)c(Br)c1)(C(=O)OCC)c1ccccc1 [Example 1-85]
1.3 nM |  | CCOC(=O)C(COC(=O)Cc1ccc(NC(=O)c2cccc(Cl)c2-c2ccc(C(F)(F)F)cc2)c(C(=O)N(C)C)c1)(C(=O)OCC)c1ccccc1 [Example 2-79]
11 nM |  | CCOC(=O)C(COC(=O)Cc1ccc(NC(=O)c2ccccc2-c2ccc(C(F)(F)F)cc2)c(CC)c1)(C(=O)OCC)c1ccccc1 [Example 1-78]
0.54 nM |  | C=C(C)c1ccc(-c2ccccc2C(=O)Nc2ccc(CC(=O)OCC(C(=O)OCC)(C(=O)OCC)c3ccccc3)cc2C(=O)N(C)C)cc1 [Example 2-91]
1.8 nM |  | CCOC(=O)C(COC(=O)Cc1ccc(NC(=O)c2ccccc2-c2ccc(Cl)cc2)c(C(=O)N(C)C)c1)(C(=O)OCC)c1ccccc1 [Example 2-42]
27 nM |  | CCNC(=O)C(COC(=O)Cc1ccc(NC(=O)c2ccccc2C(F)(F)F)c(C(=O)N(C)C)c1)(C(=O)NCC)c1ccccc1 [Example 2-30]
7.4 nM |  | CCCC(=O)N[C@H](COC(=O)Cc1ccc(NC(=O)c2ccccc2-c2ccc(C(F)(F)F)cc2)c(C(=O)N(C)C)c1)c1ccccc1 [Example 2-36]
49.9 nM |  | CCOC(=O)C(COC(=O)Cc1ccc(NC(=O)c2ccccc2-c2ccc(C(F)(F)F)cc2)c(O)c1)(C(=O)OCC)c1ccccc1 [Example 3-15]
39 nM |  | COCCNC(=O)C(COC(=O)Cc1ccc(NC(=O)c2ccccc2-c2ccc(C(F)(F)F)cc2)cc1)(C(=O)NCCOC)c1ccccc1 [Example 1-73]
4.4 nM |  | CCOC(=O)C(COC(=O)Cc1ccc(NC(=O)c2ccccc2-c2ccc(C(F)(F)F)cc2)c(Cl)c1)(C(=O)OCC)c1ccccc1 [Example 1-84]
7.86 nM |  | CCOC(=O)C(COC(=O)Cc1ccc(NC(=O)c2ccccc2-c2ccc(C(F)(F)F)cc2)c(-c2ccccc2)c1)(C(=O)OCC)c1ccccc1 [Example 9-24]
1.3 nM |  | CCNC(=O)C(CCOC(=O)Cc1cccc(NC(=O)c2ccccc2-c2ccc(C(F)(F)F)cc2)c1OC)(C(=O)NCC)c1ccccc1 [Example 5-12]
0.96 nM |  | CCOC(=O)C(CCOC(=O)Cc1ccc(NC(=O)c2ccc(C)cc2-c2ccc(C(F)(F)F)cc2)c(C(=O)N(C)C)c1)(C(=O)OCC)c1ccccc1 [Example 2-81]
0.84 nM |  | CCOC(=O)CC(COC(=O)Cc1ccc(NC(=O)c2ccccc2-c2ccc(C(F)(F)F)cc2)c(C(=O)N(C)C)c1)(C(=O)OCC)c1ccccc1 (centres unmarked) [Example 2-74]
2.9 nM |  | CCOC(=O)C(COC(=O)Cc1ccc(NC(=O)c2ccccc2-c2ccc(C#N)cc2)c(C(=O)N(C)C)c1)(C(=O)OCC)c1ccccc1 [Example 2-46]
12.5 nM |  | CCOC(=O)C(COC(=O)Cc1ccc(NC(=O)c2ccccc2-c2ccc(C(F)(F)F)cc2)c(C(=O)N(C)C)c1)(C(=O)OCC)c1ccccc1OC [Example 2-75]
0.54 nM |  | CCOC(=O)C(COC(=O)Cc1ccc(NC(=O)c2ccccc2-c2ccc(C(F)(F)F)cc2)c(C(=O)N(C)C)c1)(C(=O)OCC)c1ccccc1Cl [Example 2-71]
8.2 nM |  | CN(C)C(=O)c1cc(CC(=O)OC[C@H](c2ccccc2)N2C(=O)CCC2=O)ccc1NC(=O)c1ccccc1-c1ccc(C(F)(F)F)cc1 [Example 2-26]
2 nM |  | CCOC(=O)C(COC(=O)Cc1ccc(NC(=O)c2ccccc2-c2ccc(Br)cc2)c(C(=O)N(C)C)c1)(C(=O)OCC)c1ccccc1 [Example 2-34]
0.53 nM |  | CCNC(=O)C(COC(=O)Cc1ccc(NC(=O)c2ccccc2-c2ccc(C(F)(F)F)cc2)c(CC(C)C)c1)(C(=O)NCC)c1ccccc1 [Example 1-82]

SMILES | IC50 [1] | IC50 (main metabolites of the compounds (Test Example 8), read-out: Inhibition of apo B secretion IC50)
CCOC(=O)C(COC(=O)Cc1ccc(NC(=O)c2ccccc2-c2ccc(C(F)(F)F)cc2)c(OCC)c1)(C(=O)OCC)c1ccccc1 [Example 3, 2-(2-{3-Ethoxy-4-[(4′-trifluoromethylbiphenyl-2-carbonyl)amino]phenyl}acetoxymethyl)-2-phenylmalonic acid diethyl ester] | 1.9 nM | 
